Laboratory results from US4945097A, “Aryl-cycloalkyl-alkanolamines for treatment of neurotoxic injury” (priority 1987, dated 1990).

Key:
[1] = test system: NMA neurotoxicity in 15-day old chick embryo retina; test: NMDA/KA Antagonist Assay: prevention of NMA neurotoxicity in chick embryo retina; type: cell-based; conditions: Gallus gallus, 0.5 h; NMA 200 μM, retina incubated 30 min at 37° C in BSS, complete protection in all specimens (n>6); read-out: antagonist potency vs NMA: concentration required to totally prevent a neurotoxic reaction
Protocol: Two agonists were employed in the present test, each at a concentration established previously to be the lowest concentration required to consistently cause a fully-developed retinal lesion: KA (25 μM) and NMA (200 μM). […] Internal controls in each experiment consisted of at least six specimens being incubated with agonist alone. […] The method of tissue preparation was as follows: 15-day old chick embryos were decapitated and their eyes removed and cut into quadrants after excising the cornea and removing the lens, vitreous and iris. The retinal quadrants were then gently separated from the pigment epithelium and incubated for 30 min. at 37° C. in BSS to which an agonist or agonist plus antagonist was added. The BSS contained 140 mM Na^+, 5.0 mM K^+, 0.5 mM Ca^++, 4 5 mM mG^++, 150 mM Cl^-, 5.6 mM glucose and bicarbonate/phosphate buffer (pH 7.3). After incubation for 30 min., the retinal quadrants were fixed by immersion in phosphate-buffered solution containing 1.5% glutaraldehyde and 1% paraformaldehyde, then additionally fixed in 1% osmium tetroxide, dehydrated in graded ethanols, cleared in toluene and embedded in araldite. Sections were cut 1 micron thick on a Sorval ultratome and stained with Methylene blue/Azure 11 for histopathological evaluation by light microscopy.

[2] = test system: KA neurotoxicity in 15-day old chick embryo retina; test: NMDA/KA Antagonist Assay: prevention of KA neurotoxicity in chick embryo retina; type: cell-based; set-up: key: --: A dash signifies no antagonist action; conditions: KA 25 μM, retina incubated 30 min at 37° C in BSS
Protocol: A 15-day old chick embryo retina, incubated for 30 min. in a balanced sat solution (BSS) containing 1 mM Glu, developed a full lesion resembling that described in the immature mouse retina following s.c. administration of Glu. Other excitotoxin agonists also produce acute lesions within 30 min., each agent being effective at a concentration proportional to its known excitatory and toxic potencies. The pattern of cellular degeneration is restricted in each case to the ganglion cell, inner plexiform and inner nuclear layers, but within these areas certain agonists induce different patterns of degeneration, the differences being most pronounced between NMA and KA. Two agonists were employed in the present test, each at a concentration established previously to be the lowest concentration required to consistently cause a fully-developed retinal lesion: KA (25 μM) and NMA (200 μM). Procyclidine, biperiden and trihexyphenidyl were tested at various concentrations for their ability to prevent KA or NMA neurotoxicity. […] Internal controls in each experiment consisted of at least six specimens being incubated with agonist alone. A typical toxic reaction had to be present in all controls and absent from all experimental specimens in order to qualify as a blocking effect. The method of tissue preparation was as follows: 15-day old chick embryos were decapitated and their eyes removed and cut into quadrants after excising the cornea and removing the lens, vitreous and iris. The retinal quadrants were then gently separated from the pigment epithelium and incubated for 30 min. at 37° C. in BSS to which an agonist or agonist plus antagonist was added. The BSS contained 140 mM Na^+, 5.0 mM K^+, 0.5 mM Ca^++, […], 150 mM Cl^-, 5.6 mM glucose and bicarbonate/phosphate buffer (pH 7.3). After incubation for 30 min., the retinal quadrants were fixed by immersion in phosphate-buffered solution containing 1.5% glutaraldehyde and 1% paraformaldehyde, then additionally fixed in 1% osmium tetroxide, dehydrated in graded ethanols, cleared in toluene and embedded in araldite. […]

[3] = test system: H/I neuronal degeneration in Sprague Dawley rats, 10 days old; type: in vivo
Protocol: A total of 30 Sprague Dawley rats, 10 days old, were used in this assay. Ten pups (5 control and 5 experimental) were studied on each of 3 separate days, the protocol being the same each day. A unilateral carotid ligation was performed under halothane anesthesia, and the incision was closed with super glue. After recovery from anesthesia, the experimental pups were given a subcutaneous injection of procyclidine (50 mg/kg in 0.1 ml aqueous solution, pH 7.4) and controls an equal volume sc injection of normal saline. Immediately thereafter, all 10 of the pups (half control and half experimental) were placed together in a large sealed transparent chamber and a partial vacuum was gradually created (pressure reduced from 760 to 200 mm Hg over a 1 minute period). A water bath surrounding the bottom half of the chamber kept the temperature inside at 38° C. After 75 minutes the pressure was returned gradually to 760 mm Hg over a 1 minute interval and, after a 2 hour observation period, the pups were anesthetized, the neck incision opened and the ligature removed from the carotid (a piece of tubing had originally been placed between the suture and vessel wall to facilitate subsequent removal of the suture without damage to the vessel wall). While still under anesthesia, the pups were sacrificed by perfusion fixation with aldehyde fixatives. Since the ligature had been removed from the occluded carotid, perfusate was able to distribute equally to the two hemispheres. After 15 minutes of perfusion, the brains were removed and sliced in 1 mm thick transverse slabs which were post fixed in osmium tetroxide, dehydrated in graded ethanols, cleared in toluene and embedded flat in araldite [J. W. Olney, "Glutamate-Induced Neuronal Necrosis In The Infant Mouse Hypothalamus: An Electron Microscopic Study", Neuropthol. Exp. Neurol., 30, 75-90 (1971)]. Sections (1 micron thick) were cut at 40 micron intervals and stained with azure II/methylene blue to permit a systematic microscopic evaluation of all regions of interest in each brain. In a large number of control infant rats (n>100) subjected to the above hypobaric/ischemic conditions, there has been shown a 90% survival rate (10% die in the hypobaric chamber) and a 94% incidence of brain damage which is always confined unilaterally to the side of the carotid ligation [J. M. Olney, "Hypoxia-Ischemia Causes Glutamate-Like Neuropathological changes in Infant Rat Brain", Neurosci Abst., 13, 1553 (1987)]. […] The damage in control rats consists of unilateral disseminated acute neuronal degeneration in some or all of the following regions: medial habenulum, dentate hippocampal gyrus, caudate nucleus, olfactory tubercle, islands of calleja, fronto-parietal neocortex and several thalamic nuclei. Two of 15 control and 2 of 15 experimental infants died in the hypobaric chamber. […] Among the 13 surviving procyclidine-treated pups, 10 had no damage in any of the above brain regions, 3 had small attenuated lesions, limited in two pups to the medial habenulum and in one to the caudate. […] Signs such as ataxia, head and body weaving, prostration and respiratory depression, which are sometimes seen in animals treated with antiexcitotoxic drugs, were not observed.

SMILES | EC100 [1] [µM] | antagonist potency vs KA: concentration required to totally prevent a neurotoxic reaction [2] | treated animals with total protection against H/I neuronal degeneration ([3]; 50 mg/kg sc) [%] | number of surviving treated pups with no damage in any of the brain regions ([3]; 50 mg/kg sc, 13 surviving treated pups, carotid ligation plus 75 min hypobaric) | number of surviving treated pups with small attenuated lesions ([3]; 50 mg/kg sc, 13 surviving treated pups, two limited to medial habenulum, one to caudate) | treated animals with markedly reduced severity of neuropathology ([3]; 50 mg/kg sc, the remaining animals) [%] | side effects of the single dose ([3]; rat, in vivo)
OC(CCN1CCCCC1)(c1ccccc1)C1CC2C=CC1C2 (stereo not drawn) [Biperiden, α-bicyclo[2.2.1]hept-5-en-2-yl-α-phenyl-1-piperidinepropanol] | 200 | -- |  |  |  |  | 
OC(CCN1CCCC1)(c1ccccc1)C1CCCCC1 (stereo not drawn) [Procyclidine, α-cyclohexyl-α-phenyl-1-pyrrolidinepropanol] |  | -- | ~80 | 10 | 3 | 20 | minimal side effects
OC(CCN1CCCCC1)(c1ccccc1)C1CCCCC1 (stereo not drawn) [Trihexyphenidyl, α-cyclohexyl-α-phenyl-1-piperidinepropanol] | 125 | -- |  |  |  |  | 
